# Patent US20130178449A1, “2-Methylene-20(21)-Dehydro-19,24,25,26,27-Pentanor-Vitamin D Analogs” (WISCONSIN ALUMNI RESEARCH FOUNDATION, priority 2011, published 2013)
# Like-named read-outs stand apart in the source and are kept apart here.
# What was measured:
# HL-60 cells = assay: HL-60 differentiation (nitro blue tetrazolium reduction); type: cell-based, human; settings: for EC50: HL-60 cells into monocytes, FIG. 2, read-out: EC50, HL-60 cell differentiation
# Description: The study drugs were dissolved in ethanol and the concentrations determined using UV spectrophotometry. Serial dilutions were prepared so that a range of drug concentrations could be tested without changing the final concentration of ethanol (≦0.2%) present in the cell cultures.
# Human promyelocytic leukemia (HL60) cells were grown in RPMI-1640 medium containing 10% fetal bovine serum. The cells were incubated at 37° C. in the presence of 5% CO2.
# HL60 cells were plated at 1.2×10^5 cells/ml. Eighteen hours after plating, cells in duplicate were treated with drug. Four days later, the cells were harvested and a nitro blue tetrazolium reduction assay was performed (Collins et al., 1979; J. Exp. Med. 149:969-974). The percentage of differentiated cells was determined by counting a total of 200 cells and recording the number that contained intracellular black-blue formazan deposits. Verification of differentiation to monocytic cells was determined by measuring phagocytic activity (data not shown).
# [1] = tested on: 24-hydroxylase (24Ohase) gene promoter; assay: In vitro transcription assay (24-hydroxylase promoter luciferase reporter in ROS 17/2.8 bone cells); type: cell-based; settings: for EC50: ROS 17/2.8 cells, 24-hydroxylase gene, FIG. 3, read-out: EC50, transcriptional activity in bone cells
# Description: Transcription activity was measured in ROS 17/2.8 (bone) cells that were stably transfected with a 24-hydroxylase (24Ohase) gene promoter upstream of a luciferase reporter gene (Arbour et al., 1998). Cells were given a range of doses. Sixteen hours after dosing the cells were harvested and luciferase activities were measured using a luminometer.
# RLU=relative luciferase units.
# [2] = Intestinal calcium transport (everted gut sac) in vitamin D-deficient rats; type: in vivo, rat; settings: ip, 4 consecutive days
# Description: (§1) Male, weanling Sprague-Dawley rats were placed on Diet 11 (0.47% Ca) diet+AEK oil for one week followed by Diet 11 (0.02% Ca)+AEK oil for 3 weeks. The rats were then switched to a diet containing 0.47% Ca for one week followed by two weeks on a diet containing 0.02% Ca. Dose administration began during the last week on 0.02% calcium diet. Four consecutive ip doses were given approximately 24 hours apart. Twenty-four hours after the last dose, blood was collected from the severed neck and the concentration of serum calcium determined as a measure of bone calcium mobilization. The first 10 cm of the intestine was also collected for intestinal calcium transport analysis using the everted gut sac method.
# [3] = Bone calcium mobilization (serum calcium) in vitamin D-deficient rats; type: in vivo, rat; settings: ip, 4 consecutive days, rats on 0.02% Ca diet
# Description: as §1
# [4] = target: T1, full-length recombinant rat vitamin D receptor (Rattus norvegicus, UniProt P13053); assay: Vitamin D receptor binding (competition with [3H]-1,25(OH)2D3)
# T1 construct: Full-length recombinant rat receptor was expressed in E. coli BL21 (DE3) Codon Plus RIL cells; histidine tag (C); made in house; host or cells: E. coli BL21 (DE3) Codon Plus RIL
# T1 sequence (P13053 1-423): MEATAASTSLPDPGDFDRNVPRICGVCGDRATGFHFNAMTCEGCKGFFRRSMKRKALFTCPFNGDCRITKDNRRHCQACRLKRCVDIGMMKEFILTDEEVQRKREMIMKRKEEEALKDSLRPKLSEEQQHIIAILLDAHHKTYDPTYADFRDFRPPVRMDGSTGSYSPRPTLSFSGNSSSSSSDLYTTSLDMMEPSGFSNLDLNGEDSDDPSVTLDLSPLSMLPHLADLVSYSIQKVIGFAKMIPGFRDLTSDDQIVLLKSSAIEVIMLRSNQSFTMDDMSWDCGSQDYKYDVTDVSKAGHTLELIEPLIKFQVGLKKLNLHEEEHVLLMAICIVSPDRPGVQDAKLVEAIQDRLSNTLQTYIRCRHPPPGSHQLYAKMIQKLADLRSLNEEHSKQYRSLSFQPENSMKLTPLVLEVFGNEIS
# Description: Full-length recombinant rat receptor was expressed in E. coli BL21 (DE3) Codon Plus RIL cells and purified to homogeneity using two different column chromatography systems. The first system was a nickel affinity resin that utilizes the C-terminal histidine tag on this protein. The protein that was eluted from this resin was further purified using ion exchange chromatography (S-Sepharose Fast Flow). Aliquots of the purified protein were quick frozen in liquid nitrogen and stored at −80° C. until use. For use in binding assays, the protein was diluted in TEDK50 (50 mM Tris, 1.5 mM EDTA, pH7.4, 5 mM DTT, 150 mM KCl) with 0.1% Chaps detergent. The receptor protein and ligand concentration were optimized such that no more than 20% of the added radiolabeled ligand was bound to the receptor.
# Radiolabeled and unlabeled ligands were added to 100 mcl of the diluted protein at a final ethanol concentration of ≦10%, mixed and incubated overnight on ice to reach binding equilibrium. The following day, 100 mcl of hydroxylapatite slurry (50%) was added to each tube and mixed at 10-minute intervals for 30 minutes. The hydroxylapaptite was collected by centrifugation and then washed three times with Tris-EDTA buffer (50 mM Tris, 1.5 mM EDTA, pH 7.4) containing 0.5% Titron X-100. […] Total binding was determined from the tubes containing only radiolabeled ligand.
EC50 (HL-60 cells; Homo sapiens) [nM],"VDR binding activity relative to 1α,25-dihydroxyvitamin D3 ([4]; compared to native hormone)","Ki ([4]; full-length recombinant rat VDR, FIG. 1) [nM]",SMILES,EC50 (HL-60 cells) [nM],EC50 [1] [nM],intestinal calcium transport ([2]; 260 pmol/day),bone calcium mobilization (serum calcium) ([3]; 260 pmol/day),"times less potent than 1,25(OH)2D3 on HL-60 cell differentiation (HL-60 cells; compared to 1,25(OH)2D3)","times less potent than 1,25(OH)2D3 in increasing transcription of the 24-hydroxylase gene ([1]; bone cells, compared to 1,25(OH)2D3) [times]",intestinal calcium transport ([2]; 7020 pmol/day),intestinal calcium transport ([2]; 35100 pmol/day),bone calcium mobilization (serum calcium) ([3]; 7020 pmol/day),bone calcium mobilization (serum calcium) ([3]; 35100 pmol/day)
–,–,–,"C=C1/C(=C\C=C2/CCC[C@]3(C)[C@@H]([C@H](C)CCCC(C)(C)O)CC[C@@H]23)C[C@@H](O)C[C@@H]1O [1,25(OH)2D3, 1α,25-dihydroxyvitamin D3, reference compound]",3,0.2,significant increase,increased serum calcium levels,–,–,–,–,–,–
30,about one-half log less active,0.08,"C=C1[C@H](O)CC(=C/C=C2\CCC[C@]3(C)[C@@H](C(=C)CC)CC[C@@H]23)C[C@H]1O [MDBE 20, 2-methylene-20(21)-dehydro-19,24,25,26,27-pentanor-1α-hydroxyvitamin D3]",–,4,–,–,about 10 times,10,does not promote intestinal calcium transport,does not promote intestinal calcium transport,did not result in mobilization of bone calcium,no substantial effect was seen
